Experiments:
[1] = molecular target: T1, NS3-NS4A protease (Hepatitis C virus genotype 1a, UniProt P27958); assay: NS3-NS4A protease assay (NS3 inhibition assay, RETS1 substrate), Section B; assay type: biochemical; settings: read-out: NS3-NS4A IC50
T1 construct: Recombinant E. coli or Baculovirus full-length NS3 was diluted to 3.33 μM with assay buffer; made in house; host or cells: E. coli or baculovirus (BV) system
Summary of the method: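 Kinetic fluorescence read (335 nm excitation, 495 nm emission, 30 min) of RETS1 cleavage by NS3/NS4A-2 complex, 2 nM E. coli or 3 nM baculovirus NS3, after 10 min room-temperature compound pre-incubation. Four-parameter-fit IC50s converted to Ki by Cheng–Prusoff, Ki=IC50/(1+[S]/Km).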

[2] = tested on: HCV sub-genomic replicon, GS4.3; assay: Quantitation by ELISA of NPTII in the HCV sub-genomic replicon, GS4.3, Section B; assay type: cell-based; settings: Hepatitis C virus; GS4.3 cells, 72 h incubation; read-out: Replicon EC50
Summary of the method: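 NPTII marker protein in lysates was quantified by ELISA read at 450 nm after 72 h inhibitor exposure (3-fold series, final DMSO 1%, G418-free medium) of HuH-7 cells stably harbouring the subgenomic HCV replicon. Values relative to DMSO-treated controls; 4-parameter curves gave EC50.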

T1 sequence (P27958 1027-1657): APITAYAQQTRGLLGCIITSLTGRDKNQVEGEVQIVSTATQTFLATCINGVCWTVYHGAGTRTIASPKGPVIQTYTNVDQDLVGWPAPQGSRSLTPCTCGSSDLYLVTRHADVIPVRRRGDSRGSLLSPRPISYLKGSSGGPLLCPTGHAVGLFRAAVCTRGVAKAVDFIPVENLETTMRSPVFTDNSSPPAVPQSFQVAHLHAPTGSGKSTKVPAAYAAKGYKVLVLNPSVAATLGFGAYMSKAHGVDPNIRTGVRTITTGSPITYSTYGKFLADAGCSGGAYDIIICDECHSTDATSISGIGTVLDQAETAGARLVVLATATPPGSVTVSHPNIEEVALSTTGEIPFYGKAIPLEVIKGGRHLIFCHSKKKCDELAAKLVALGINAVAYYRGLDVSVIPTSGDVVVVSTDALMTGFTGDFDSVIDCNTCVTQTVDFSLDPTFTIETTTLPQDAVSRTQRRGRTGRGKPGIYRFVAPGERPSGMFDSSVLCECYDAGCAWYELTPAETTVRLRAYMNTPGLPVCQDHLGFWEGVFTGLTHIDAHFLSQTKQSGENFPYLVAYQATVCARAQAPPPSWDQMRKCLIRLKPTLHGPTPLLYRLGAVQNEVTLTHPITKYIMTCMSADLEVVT

SMILES | IC50 [1] | EC50 [2]
CC(C)(C)OC(=O)N[C@H]1CCCCC/C=C\[C@@H]2C[C@@]2(C(=O)NS(=O)(=O)C2CC2)NC(=O)[C@@H]2C[C@@H](OC(=O)N3Cc4ccc(O)cc4C3)CN2C1=O [AR00364936, (1S,4R,6S,14S,18R)-5-Hydroxy-1,3-dihydro-isoindole-2-carboxylic acid 14-tert-butoxycarbonylamino-4-cyclopropanesulfonylaminocarbonyl-2,15-dioxo-3,16-diaza-tricyclo[14.3.0.0^4,6]nonadec-7-en-18-yl ester] | < 100 nM | < 1000 nM
Cc1nc(-c2ccc3c(c2)CN(C(=O)O[C@@H]2C[C@H]4C(=O)N[C@]5(C(=O)NS(=O)(=O)C6CC6)C[C@H]5/C=C\CCCCC[C@H](NC(=O)OC(C)(C)C)C(=O)N4C2)C3)cs1 [AR00364989, (1S,4R,6S,14S,18R)-5-(2-Methyl-thiazol-4-yl)-1,3-dihydro-isoindole-2-carboxylic acid 14-tert-butoxycarbonylamino-4-cyclopropanesulfonylaminocarbonyl-2,15-dioxo-3,16-diaza-tricyclo[14.3.0.0^4,6]nonadec-7-en-18-yl ester] | < 100 nM | < 100 nM
CC(C)Nc1nc(-c2ccc3c(c2)CN(C(=O)O[C@@H]2C[C@H]4C(=O)N[C@]5(C(=O)NS(=O)(=O)C6CC6)C[C@H]5/C=C\CCCCC[C@H](NC(=O)OC(C)(C)C)C(=O)N4C2)C3)cs1 [AR00365019, (1S,4R,6S,14S,18R)-5-(2-Isopropylamino-thiazol-4-yl)-1,3-dihydro-isoindole-2-carboxylic acid 14-tert-butoxycarbonylamino-4-cyclopropanesulfonylaminocarbonyl-2,15-dioxo-3,16-diaza-tricyclo[14.3.0.0^4,6]nonadec-7-en-18-yl ester] | < 100 nM | < 100 nM
CC(C)(C)OC(=O)N[C@H]1CCCCC/C=C\[C@@H]2C[C@@]2(C(=O)NS(=O)(=O)C2CC2)NC(=O)[C@@H]2C[C@@H](OC(=O)N3Cc4ccc(C#N)cc4C3)CN2C1=O [AR00365082, (1S,4R,6S,14S,18R)-5-Cyano-1,3-dihydro-isoindole-2-carboxylic acid 14-tert-butoxycarbonylamino-4-cyclopropanesulfonylaminocarbonyl-2,15-dioxo-3,16-diaza-tricyclo[14.3.0.0^4,6]nonadec-7-en-18-yl ester] | < 100 nM | < 1000 nM
COC(=O)c1ccc2c(c1)CN(C(=O)O[C@@H]1C[C@H]3C(=O)N[C@]4(C(=O)NS(=O)(=O)C5CC5)C[C@H]4/C=C\CCCCC[C@H](NC(=O)OC(C)(C)C)C(=O)N3C1)C2 [AR00365083, (1S,4R,6S,14S,18R)-1,3-Dihydro-isoindole-2,5-dicarboxylic acid 2-(14-tert-butoxycarbonylamino-4-cyclopropanesulfonylaminocarbonyl-2,15-dioxo-3,16-diaza-tricyclo[14.3.0.0^4,6]nonadec-7-en-18-yl) ester 5-methyl ester] | < 100 nM | < 100 nM
CC(C)(C)OC(=O)N[C@H]1CCCCC/C=C\[C@@H]2C[C@@]2(C(=O)NS(=O)(=O)C2CC2)NC(=O)[C@@H]2C[C@@H](OC(=O)N3Cc4ccc(C(=O)O)cc4C3)CN2C1=O [AR00365084, (1S,4R,6S,14S,18R)-1,3-Dihydro-isoindole-2,5-dicarboxylic acid 2-(14-tert-butoxycarbonylamino-4-cyclopropanesulfonylaminocarbonyl-2,15-dioxo-3,16-diaza-tricyclo[14.3.0.0^4,6]nonadec-7-en-18-yl) ester] | < 100 nM | < 10000 nM
COCC1c2cccc(F)c2CCN1C(=O)O[C@@H]1CC2C(=O)N[C@]3(C(=O)NS(=O)(=O)C4CC4)C[C@H]3/C=C\CCCCC[C@H](NC(=O)OC(C)(C)C)C(=O)N2C1 (stereo partly drawn) [AR00365193, (1S,4R,6S,14S,18R)-5-Fluoro-1-methoxymethyl-3,4-dihydro-1H-isoquinoline-2-carboxylic acid 14-tert-butoxycarbonylamino-4-cyclopropanesulfonylaminocarbonyl-2,15-dioxo-3,16-diaza-tricyclo[14.3.0.0^4,6]nonadec-7-en-18-yl ester] | < 100 nM | < 100 nM
CCNC(=O)c1ccc2c(c1)CN(C(=O)O[C@@H]1C[C@H]3C(=O)N[C@]4(C(=O)NS(=O)(=O)C5CC5)C[C@H]4/C=C\CCCCC[C@H](NC(=O)OC(C)(C)C)C(=O)N3C1)C2 [AR00365252, (1S,4R,6S,14S,18R)-5-Ethylcarbamoyl-1,3-dihydro-isoindole-2-carboxylic acid 14-tert-butoxycarbonylamino-4-cyclopropanesulfonylaminocarbonyl-2,15-dioxo-3,16-diaza-tricyclo[14.3.0.0^4,6]nonadec-7-en-18-yl ester] | < 100 nM | < 1000 nM
COCC1c2cccc(F)c2CCN1C(=O)O[C@@H]1C[C@H]2C(=O)N[C@]3(C(=O)O)C[C@H]3/C=C\CCCCC[C@H](NC(=O)OC(C)(C)C)C(=O)N2C1 (stereo partly drawn) [AR00365349, (1S,4R,6S,14S,18R)-14-tert-Butoxycarbonylamino-18-(5-fluoro-1-methoxymethyl-3,4-dihydro-1H-isoquinoline-2-carbonyloxy)-2,15-dioxo-3,16-diaza-tricyclo[14.3.0.0^4,6]nonadec-7-ene-4-carboxylic acid] | < 1000 nM | < 1000 nM
CC(C)(C)OC(=O)N[C@H]1CCCCC/C=C\[C@@H]2C[C@@]2(C(=O)O)NC(=O)[C@@H]2C[C@@H](OC(=O)N3Cc4cccc(F)c4C3)CN2C1=O [AR00365369, (1S,4R,6S,14S,18R)-14-tert-Butoxycarbonylamino-18-(4-fluoro-1,3-dihydro-isoindole-2-carbonyloxy)-2,15-dioxo-3,16-diaza-tricyclo[14.3.0.0^4,6]nonadec-7-ene-4-carboxylic acid] | < 100 nM | < 1000 nM
COCC1c2cccc(F)c2CCN1C(=O)O[C@@H]1CC2C(=O)N[C@]3(C(=O)O)C[C@H]3/C=C\CCCCC[C@H](NC(=O)OC3CCCC3)C(=O)N2C1 (stereo partly drawn) [AR00365381, (1S,4R,6S,14S,18R)-14-Cyclopentyloxycarbonylamino-18-(5-fluoro-1-methoxymethyl-3,4-dihydro-1H-isoquinoline-2-carbonyloxy)-2,15-dioxo-3,16-diaza-tricyclo[14.3.0.0^4,6]nonadec-7-ene-4-carboxylic acid] | < 1000 nM | < 1000 nM
CC(C)(C)OC(=O)N[C@H]1CCCCC/C=C\[C@@H]2C[C@@]2(C(=O)NS(=O)(=O)c2ccc(C(=O)O)cc2)NC(=O)[C@@H]2C[C@@H](OC(=O)N3Cc4ccccc4C3)CN2C1=O [AR00365387, (1S,4R,6S,14S,18R)-1,3-Dihydro-isoindole-2-carboxylic acid 14-tert-butoxycarbonylamino-4-(4-carboxy-benzenesulfonylaminocarbonyl)-2,15-dioxo-3,16-diaza-tricyclo[14.3.0.0^4,6]nonadec-7-en-18-yl ester] | < 100 nM | < 100 nM
CC(C)(C)OC(=O)N[C@H]1CCCCC/C=C\[C@@H]2C[C@@]2(C(=O)NS(=O)(=O)c2cc(C(=O)O)c(Cl)cc2F)NC(=O)[C@@H]2C[C@@H](OC(=O)N3Cc4ccccc4C3)CN2C1=O [AR00365426, (1S,4R,6S,14S,18R)-1,3-Dihydro-isoindole-2-carboxylic acid 14-tert-butoxycarbonylamino-4-(5-carboxy-4-chloro-2-fluoro-benzenesulfonylaminocarbonyl)-2,15-dioxo-3,16-diaza-tricyclo[14.3.0.0^4,6]nonadec-7-en-18-yl ester] | < 100 nM | < 10000 nM
CC(C)(C)OC(=O)N[C@H]1CCCCC/C=C\[C@@H]2C[C@@]2(C(=O)NS(=O)(=O)c2cccs2)NC(=O)[C@@H]2C[C@@H](OC(=O)N3Cc4ccccc4C3)CN2C1=O [AR00365427, (1S,4R,6S,14S,18R)-1,3-Dihydro-isoindole-2-carboxylic acid 14-tert-butoxycarbonylamino-2,15-dioxo-4-(thiophene-2-sulfonylaminocarbonyl)-3,16-diaza-tricyclo[14.3.0.0^4,6]nonadec-7-en-18-yl ester] | < 100 nM | < 100 nM
CC(C)(C)OC(=O)N[C@H]1CCCCC/C=C\[C@@H]2C[C@@]2(C(=O)NS(=O)(=O)c2ccc(C(=O)O)cc2)NC(=O)[C@@H]2C[C@@H](OC(=O)N3Cc4cccc(F)c4C3)CN2C1=O [AR00365438, (1S,4R,6S,14S,18R)-4-Fluoro-1,3-dihydro-isoindole-2-carboxylic acid 14-tert-butoxycarbonylamino-4-(4-carboxy-benzenesulfonylaminocarbonyl)-2,15-dioxo-3,16-diaza-tricyclo[14.3.0.0^4,6]nonadec-7-en-18-yl ester] | < 100 nM | < 100 nM
CN(C)c1ccc(S(=O)(=O)NC(=O)[C@@]23C[C@H]2/C=C\CCCCC[C@H](NC(=O)OC(C)(C)C)C(=O)N2C[C@H](OC(=O)N4Cc5ccccc5C4)C[C@H]2C(=O)N3)cc1 [AR00365572, (1S,4R,6S,14S,18R)-1,3-Dihydro-isoindole-2-carboxylic acid 14-tert-butoxycarbonylamino-4-(4-dimethylamino-benzenesulfonylaminocarbonyl)-2,15-dioxo-3,16-diaza-tricyclo[14.3.0.0^4,6]nonadec-7-en-18-yl ester] | < 100 nM | < 100 nM
